Experimental data taken from US20260183295A1, “METHODS AND COMPOSITIONS FOR TREATING CANCER” (Onconova Therapeutics, Inc., priority 2022, published 2026).

Tests used:
Assay in all cases: CETSA-MS, MDA-MB-231 intact cells
Assay type in all cases: cell-based
Conditions in all cases: 2 μM and 20 μM
APLP2 = molecular target: T1, APLP2 (Homo sapiens, UniProt Q06481)
T1 construct: endogenous in cells; host or cells: MDA-MB-231
Procedure: (§1) TNBC MDA-MB-231 cells were grown at 37° C. in 5% CO2 and suspended in warm media and split into 4 equal volumes. […] Cells were incubated and then pelleted. Following pelleting, the cells were washed, resuspended, and heated in a thermal gradient. Following heating, the samples were flash frozen and lysed in lysis buffer, agitated by vortex, and sonicated prior to centrifugation. The supernatant was collected and denaturation buffer added. Cold acetone was then added to the cell samples, and protein collected by centrifugation. Pellets were then washed twice with cold acetone and the washed pellets prior to labeling.
(§2) The intact cell protein samples and lysate protein samples were then digested and labeled for mass spectrometry analysis according to the manufacturer's recommended protocols. Digested and labeled protein samples were analyzed by mass spectrometry proteomic analysis and the resulting protein targets were analyzed and plotted.

IGFBP7 = molecular target: T2, IGFBP7 (Homo sapiens, UniProt Q16270)
T2 construct: endogenous in cells; host or cells: MDA-MB-231
Procedure: as §1, §2

CLUH = molecular target: T3, CLUH (Homo sapiens, UniProt O75153)
T3 construct: endogenous in cells; host or cells: MDA-MB-231
Procedure: as §1, §2

DECR1 = molecular target: T4, DECR1 (Homo sapiens, UniProt Q16698)
T4 construct: endogenous in cells; host or cells: MDA-MB-231
Procedure: as §1, §2

CCN1 = molecular target: T5, CCN1 (Homo sapiens, UniProt O00622)
T5 construct: endogenous in cells; host or cells: MDA-MB-231
Procedure: as §1, §2

FASTKD5 = molecular target: T6, FASTKD5 (Homo sapiens, UniProt Q7L8L6)
T6 construct: 148 targets unique to Compound 1 in MDA-MB-231 intact cells; endogenous in cells; host or cells: MDA-MB-231
Procedure: as §1, §2

HNRNPA1 = molecular target: T7, HNRNPA1 (Homo sapiens, UniProt P09651)
T7 construct: 148 targets unique to Compound 1 in MDA-MB-231 intact cells; endogenous in cells; host or cells: MDA-MB-231
Procedure: as §1, §2

ZFR = molecular target: T8, ZFR (Homo sapiens, UniProt Q96KR1)
T8 construct: endogenous in cells; host or cells: MDA-MB-231
Procedure: as §1, §2

ESYT1 = molecular target: T9, ESYT1 (Homo sapiens, UniProt Q9BSJ8)
T9 construct: 148 targets unique to Compound 1 in MDA-MB-231 intact cells; endogenous in cells; host or cells: MDA-MB-231
Procedure: as §1, §2

RNF5 = molecular target: T10, RNF5 (Homo sapiens, UniProt Q99942)
T10 construct: endogenous in cells; host or cells: MDA-MB-231
Procedure: as §1, §2

YES1 = molecular target: T11, YES1 (Homo sapiens, UniProt P07947)
T11 construct: endogenous in cells; host or cells: MDA-MB-231
Procedure: as §1, §2

HNRNPA3 = molecular target: T12, HNRNPA3 (Homo sapiens, UniProt P51991)
T12 construct: 148 targets unique to Compound 1 in MDA-MB-231 intact cells; endogenous in cells; host or cells: MDA-MB-231
Procedure: as §1, §2

RBM34 = molecular target: T13, RBM34 (Homo sapiens, UniProt P42696)
T13 construct: endogenous in cells; host or cells: MDA-MB-231
Procedure: as §1, §2

PIP4K2B = molecular target: T14, PIP4K2B (Homo sapiens, UniProt P78356)
T14 construct: endogenous in cells; host or cells: MDA-MB-231
Procedure: as §1, §2

CELF1 = molecular target: T15, CELF1 (Homo sapiens, UniProt Q92879)
T15 construct: endogenous in cells; host or cells: MDA-MB-231
Procedure: as §1, §2

SNX30 = molecular target: T16, SNX30 (Homo sapiens, UniProt Q5VWJ9)
T16 construct: endogenous in cells; host or cells: MDA-MB-231
Procedure: as §1, §2

HNRNPA2B1 = molecular target: T17, HNRNPA2B1 (Homo sapiens, UniProt P22626)
T17 construct: 148 targets unique to Compound 1 in MDA-MB-231 intact cells; endogenous in cells; host or cells: MDA-MB-231
Procedure: as §1, §2

HSPG2 = molecular target: T18, HSPG2 (Homo sapiens, UniProt P98160)
T18 construct: endogenous in cells; host or cells: MDA-MB-231
Procedure: as §1, §2

HNRNPA0 = molecular target: T19, HNRNPA0 (Homo sapiens, UniProt Q13151)
T19 construct: 148 targets unique to Compound 1 in MDA-MB-231 intact cells; endogenous in cells; host or cells: MDA-MB-231
Procedure: as §1, §2

RSF1 = molecular target: T20, RSF1 (Homo sapiens, UniProt Q96T23)
T20 construct: endogenous in cells; host or cells: MDA-MB-231
Procedure: as §1, §2

IGFBP4 = molecular target: T21, IGFBP4 (Homo sapiens, UniProt P22692)
T21 construct: endogenous in cells; host or cells: MDA-MB-231
Procedure: as §1, §2

STK3 = molecular target: T22, STK3 (Homo sapiens, UniProt Q13188)
T22 construct: endogenous in cells; host or cells: MDA-MB-231
Procedure: as §1, §2

AIFM2 = molecular target: T23, AIFM2 (Homo sapiens, UniProt Q9BRQ8)
T23 construct: endogenous in cells; host or cells: MDA-MB-231
Procedure: as §1, §2

CSNK2A2 = molecular target: T24, CSNK2A2 (Homo sapiens, UniProt P19784)
T24 construct: 148 targets unique to Compound 1 in MDA-MB-231 intact cells; endogenous in cells; host or cells: MDA-MB-231
Procedure: as §1, §2

CLPP = molecular target: T25, CLPP (Homo sapiens, UniProt Q16740)
T25 construct: endogenous in cells; host or cells: MDA-MB-231
Procedure: as §1, §2

CDK7 = molecular target: T26, CDK7 (Homo sapiens, UniProt P50613)
T26 construct: endogenous in cells; host or cells: MDA-MB-231
Procedure: as §1, §2

MARK2 = molecular target: T27, MARK2 (Homo sapiens, UniProt Q7KZI7)
T27 construct: endogenous in cells; host or cells: MDA-MB-231
Procedure: as §1, §2

EIF4G1 = molecular target: T28, EIF4G1 (Homo sapiens, UniProt Q04637)
T28 construct: endogenous in cells; host or cells: MDA-MB-231
Procedure: as §1, §2

AP2S1 = molecular target: T29, AP2S1 (Homo sapiens, UniProt P53680)
T29 construct: endogenous in cells; host or cells: MDA-MB-231
Procedure: as §1, §2

RAE1 = molecular target: T30, RAE1 (Homo sapiens, UniProt P78406)
T30 construct: endogenous in cells; host or cells: MDA-MB-231
Procedure: as §1, §2

AP2M1 = molecular target: T31, AP2M1 (Homo sapiens, UniProt Q96CW1)
T31 construct: endogenous in cells; host or cells: MDA-MB-231
Procedure: as §1, §2

MAN2A1 = molecular target: T32, MAN2A1 (Homo sapiens, UniProt Q16706)
T32 construct: endogenous in cells; host or cells: MDA-MB-231
Procedure: as §1, §2

SND1 = molecular target: T33, SND1 (Homo sapiens, UniProt Q7KZF4)
T33 construct: endogenous in cells; host or cells: MDA-MB-231
Procedure: as §1, §2

Measured: Group (CETSA-MS thermal shift)

T4 sequence (Q16698 35-335): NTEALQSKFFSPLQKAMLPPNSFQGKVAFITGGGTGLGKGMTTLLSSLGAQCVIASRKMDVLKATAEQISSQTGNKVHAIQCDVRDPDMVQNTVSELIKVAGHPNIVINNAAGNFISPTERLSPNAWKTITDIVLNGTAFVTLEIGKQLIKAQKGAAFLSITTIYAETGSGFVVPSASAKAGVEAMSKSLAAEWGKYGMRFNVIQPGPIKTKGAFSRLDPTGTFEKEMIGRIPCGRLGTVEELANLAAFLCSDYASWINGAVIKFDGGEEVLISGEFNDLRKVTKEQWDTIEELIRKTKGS
T13 sequence (P42696 whole entry): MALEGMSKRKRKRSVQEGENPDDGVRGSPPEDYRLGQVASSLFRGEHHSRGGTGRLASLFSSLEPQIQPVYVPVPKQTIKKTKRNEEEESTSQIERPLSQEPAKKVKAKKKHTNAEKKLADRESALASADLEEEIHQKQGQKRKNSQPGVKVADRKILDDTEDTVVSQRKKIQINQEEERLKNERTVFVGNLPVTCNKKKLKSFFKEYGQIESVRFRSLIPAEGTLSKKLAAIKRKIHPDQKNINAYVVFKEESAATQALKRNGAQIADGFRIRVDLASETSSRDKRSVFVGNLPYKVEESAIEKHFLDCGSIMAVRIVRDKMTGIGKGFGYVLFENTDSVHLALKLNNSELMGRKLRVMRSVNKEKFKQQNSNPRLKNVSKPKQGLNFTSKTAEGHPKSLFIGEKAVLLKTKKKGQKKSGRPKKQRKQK
T33 sequence (Q7KZF4 whole entry): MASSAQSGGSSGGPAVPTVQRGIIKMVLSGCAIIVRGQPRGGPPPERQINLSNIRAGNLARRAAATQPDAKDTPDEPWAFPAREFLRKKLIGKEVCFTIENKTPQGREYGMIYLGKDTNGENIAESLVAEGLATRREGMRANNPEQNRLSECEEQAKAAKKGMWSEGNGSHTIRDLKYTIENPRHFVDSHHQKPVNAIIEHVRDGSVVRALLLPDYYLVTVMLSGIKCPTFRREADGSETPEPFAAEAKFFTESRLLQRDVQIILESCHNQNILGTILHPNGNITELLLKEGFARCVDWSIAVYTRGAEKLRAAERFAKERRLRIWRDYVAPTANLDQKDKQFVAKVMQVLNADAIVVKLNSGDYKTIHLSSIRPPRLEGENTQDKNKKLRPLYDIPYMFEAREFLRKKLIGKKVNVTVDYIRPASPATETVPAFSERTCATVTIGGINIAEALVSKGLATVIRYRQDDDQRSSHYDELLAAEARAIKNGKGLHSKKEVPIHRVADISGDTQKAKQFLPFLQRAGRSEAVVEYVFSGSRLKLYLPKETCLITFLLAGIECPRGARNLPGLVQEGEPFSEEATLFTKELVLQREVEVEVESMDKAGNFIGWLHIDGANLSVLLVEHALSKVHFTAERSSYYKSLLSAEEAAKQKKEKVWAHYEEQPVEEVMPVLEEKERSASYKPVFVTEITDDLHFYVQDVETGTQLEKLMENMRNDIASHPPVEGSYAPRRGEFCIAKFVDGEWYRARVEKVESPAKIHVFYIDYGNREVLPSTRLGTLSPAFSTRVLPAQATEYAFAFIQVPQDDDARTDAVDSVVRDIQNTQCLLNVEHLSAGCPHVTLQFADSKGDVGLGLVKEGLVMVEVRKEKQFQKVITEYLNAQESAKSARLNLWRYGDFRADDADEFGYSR
T26 sequence (P50613 2-346 limits assumed): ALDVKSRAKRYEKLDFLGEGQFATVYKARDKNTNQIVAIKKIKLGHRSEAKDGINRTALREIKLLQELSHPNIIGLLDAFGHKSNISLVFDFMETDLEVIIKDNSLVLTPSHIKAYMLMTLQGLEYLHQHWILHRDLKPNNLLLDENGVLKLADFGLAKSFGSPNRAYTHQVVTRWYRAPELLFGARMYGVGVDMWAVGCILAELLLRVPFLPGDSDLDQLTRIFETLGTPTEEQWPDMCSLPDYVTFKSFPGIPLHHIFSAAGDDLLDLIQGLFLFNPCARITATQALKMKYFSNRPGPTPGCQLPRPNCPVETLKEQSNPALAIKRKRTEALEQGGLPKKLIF
T26 sequence (P51946 whole entry partner): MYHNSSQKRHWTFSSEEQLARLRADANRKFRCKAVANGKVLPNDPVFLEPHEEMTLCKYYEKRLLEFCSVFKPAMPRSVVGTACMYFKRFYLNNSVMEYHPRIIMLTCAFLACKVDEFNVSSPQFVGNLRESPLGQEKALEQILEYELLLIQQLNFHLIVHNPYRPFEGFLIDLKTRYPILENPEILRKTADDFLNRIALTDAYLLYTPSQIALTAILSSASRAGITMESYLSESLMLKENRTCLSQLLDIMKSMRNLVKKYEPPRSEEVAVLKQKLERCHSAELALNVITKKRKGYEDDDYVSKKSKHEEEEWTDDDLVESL
T26 sequence (P51948 whole entry partner): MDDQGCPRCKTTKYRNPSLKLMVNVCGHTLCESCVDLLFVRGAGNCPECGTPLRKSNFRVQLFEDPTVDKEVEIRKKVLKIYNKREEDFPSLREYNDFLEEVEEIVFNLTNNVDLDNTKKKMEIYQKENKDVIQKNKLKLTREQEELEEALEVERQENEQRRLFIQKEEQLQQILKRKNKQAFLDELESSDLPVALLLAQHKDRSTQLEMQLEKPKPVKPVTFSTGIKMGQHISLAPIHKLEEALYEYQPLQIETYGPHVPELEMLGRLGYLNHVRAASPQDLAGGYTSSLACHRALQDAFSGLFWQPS
T22 sequence (Q13188 whole entry): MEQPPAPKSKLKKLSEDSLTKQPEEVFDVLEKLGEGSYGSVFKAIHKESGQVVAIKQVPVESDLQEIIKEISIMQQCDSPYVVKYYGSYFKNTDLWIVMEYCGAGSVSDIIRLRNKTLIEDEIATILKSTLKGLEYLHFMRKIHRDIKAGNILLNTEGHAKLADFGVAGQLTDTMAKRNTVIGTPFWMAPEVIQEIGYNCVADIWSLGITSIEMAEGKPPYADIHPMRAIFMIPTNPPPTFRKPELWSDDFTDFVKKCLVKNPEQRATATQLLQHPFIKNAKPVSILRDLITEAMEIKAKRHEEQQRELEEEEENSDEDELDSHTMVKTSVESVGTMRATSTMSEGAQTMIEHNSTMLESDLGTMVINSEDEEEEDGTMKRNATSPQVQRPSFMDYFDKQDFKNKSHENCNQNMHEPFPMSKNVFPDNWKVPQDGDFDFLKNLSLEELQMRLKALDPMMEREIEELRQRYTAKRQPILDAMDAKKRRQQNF
T7 sequence (P09651 whole entry): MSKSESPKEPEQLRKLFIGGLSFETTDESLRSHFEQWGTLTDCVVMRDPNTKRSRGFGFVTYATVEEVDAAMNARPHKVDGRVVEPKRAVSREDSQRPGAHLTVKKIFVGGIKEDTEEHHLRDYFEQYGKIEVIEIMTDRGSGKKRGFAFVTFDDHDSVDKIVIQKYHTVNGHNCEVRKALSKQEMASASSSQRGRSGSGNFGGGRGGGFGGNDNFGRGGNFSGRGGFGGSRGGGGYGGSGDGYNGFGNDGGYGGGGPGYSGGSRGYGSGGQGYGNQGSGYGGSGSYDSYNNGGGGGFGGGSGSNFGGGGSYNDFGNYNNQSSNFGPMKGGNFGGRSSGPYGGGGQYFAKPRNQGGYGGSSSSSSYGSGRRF
T27 sequence (Q7KZI7 whole entry): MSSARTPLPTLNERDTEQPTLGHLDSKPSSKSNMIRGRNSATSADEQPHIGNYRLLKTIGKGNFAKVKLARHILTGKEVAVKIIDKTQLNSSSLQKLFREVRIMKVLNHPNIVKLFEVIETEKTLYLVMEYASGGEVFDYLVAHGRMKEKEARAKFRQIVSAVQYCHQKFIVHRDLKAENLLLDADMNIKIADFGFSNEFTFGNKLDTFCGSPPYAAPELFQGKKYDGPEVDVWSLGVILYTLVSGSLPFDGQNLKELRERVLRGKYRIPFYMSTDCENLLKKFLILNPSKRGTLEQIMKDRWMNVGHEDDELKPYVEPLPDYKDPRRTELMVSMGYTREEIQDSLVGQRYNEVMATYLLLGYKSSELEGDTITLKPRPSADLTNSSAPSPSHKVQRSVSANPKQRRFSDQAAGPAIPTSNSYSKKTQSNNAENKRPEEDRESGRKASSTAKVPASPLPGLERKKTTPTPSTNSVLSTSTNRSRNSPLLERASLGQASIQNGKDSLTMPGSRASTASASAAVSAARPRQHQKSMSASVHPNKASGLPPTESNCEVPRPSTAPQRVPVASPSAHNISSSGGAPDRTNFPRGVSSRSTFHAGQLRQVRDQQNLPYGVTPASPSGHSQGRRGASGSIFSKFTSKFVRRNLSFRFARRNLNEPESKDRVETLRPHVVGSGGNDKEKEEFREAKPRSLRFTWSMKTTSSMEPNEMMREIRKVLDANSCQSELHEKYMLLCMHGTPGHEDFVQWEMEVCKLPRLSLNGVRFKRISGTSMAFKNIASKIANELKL
T10 sequence (Q99942 whole entry): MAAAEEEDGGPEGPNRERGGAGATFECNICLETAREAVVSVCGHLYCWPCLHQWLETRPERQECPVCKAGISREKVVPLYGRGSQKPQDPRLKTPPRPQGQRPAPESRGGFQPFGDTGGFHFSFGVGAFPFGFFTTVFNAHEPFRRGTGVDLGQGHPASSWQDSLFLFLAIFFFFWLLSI
T5 sequence (O00622 25-381): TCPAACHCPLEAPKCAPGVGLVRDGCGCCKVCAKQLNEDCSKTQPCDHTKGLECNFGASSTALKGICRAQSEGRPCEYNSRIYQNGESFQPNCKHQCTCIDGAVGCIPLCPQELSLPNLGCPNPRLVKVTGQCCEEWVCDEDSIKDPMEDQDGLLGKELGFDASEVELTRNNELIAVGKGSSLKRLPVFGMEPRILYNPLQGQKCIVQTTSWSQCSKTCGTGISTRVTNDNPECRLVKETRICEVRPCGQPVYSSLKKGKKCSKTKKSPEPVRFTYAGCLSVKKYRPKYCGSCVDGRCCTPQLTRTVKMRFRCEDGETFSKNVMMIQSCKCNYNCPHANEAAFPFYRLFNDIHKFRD

CN1CCN(c2ccc(Nc3ncc4cc(C#N)c(=O)n(C5CCCC5)c4n3)cc2)CC1 [Compound 1, 8-cyclopentyl-2-((4-(4-methylpiperazin-1-yl)phenyl)amino)-7-oxo-7,8-dihydropyrido[2,3-d]pyrimidine-6-carbonitrile]
Destabilization: DECR1 | YES1 | SNX30 | STK3 | AIFM2 | CDK7 | MARK2 | EIF4G1 | AP2S1 | AP2M1
Stabilization: all other assays above
